Test results taken from patent publication US20090054451A1, “Use of Piperidine Derivatives as Agonists of Chemokine Receptor Activity” (Euroscreen S.A., priority 2007, published 2009).
Like-named read-outs stand apart in the source and are kept apart here. Blank lines part the entries; values can stand above or below the compound they belong to.

Key:
[1] = system: recombinant and non-replicative HIV virus; assay: Inhibitory effect on HIV infection to MAGI-CCR5 cells (luciferase reporter virus); format: cell-based
Protocol: The inhibitory activity of the compounds of the invention on HIV infection is measured on the human MAGI R5 recombinant cell line coexpressing the human CCR5 receptor and CD4 at their extracellular membrane. MAGI R5 cells are plated in black view plates at 10,000 cells/well and incubated with the appropriate concentrations of the compounds of the invention during 1 hour. This is followed by a 24 hours infection period with the recombinant and non-replicative HIV virus coding for the firefly luciferase (Bona et al., 2006, Antimicrob. Agents Chemother. 50: 3407-3417). The inhibitory effect of the tested compound on virus entry in MAGI R5 cells is measured by a reduction of luciferase signal (TopCount-NXT reader (Packard) and detection luciferase kit: steadylite HTS assay kit (Perkin Elmer)) in the presence of the compound of the invention relative to the maximum signal obtained from cells infected with the virus without any added compound. The results of the tested compounds are reported as the concentration of compound required to inhibit 50% (IC50) of the maximum luciferase signal.

[2] = target: T1, CCR5 receptor (Homo sapiens, UniProt P51681); assay: 125I-MIP-1β binding competition assay; parameters: expressed in transfected cells; host or cells: membranes of recombinant Chinese hamster ovary (CHO) cells; conditions: membranes of CHO cells expressing human CCR5; 0.05 nM 125I-MIP-1β
T1 sequence (P51681 whole entry): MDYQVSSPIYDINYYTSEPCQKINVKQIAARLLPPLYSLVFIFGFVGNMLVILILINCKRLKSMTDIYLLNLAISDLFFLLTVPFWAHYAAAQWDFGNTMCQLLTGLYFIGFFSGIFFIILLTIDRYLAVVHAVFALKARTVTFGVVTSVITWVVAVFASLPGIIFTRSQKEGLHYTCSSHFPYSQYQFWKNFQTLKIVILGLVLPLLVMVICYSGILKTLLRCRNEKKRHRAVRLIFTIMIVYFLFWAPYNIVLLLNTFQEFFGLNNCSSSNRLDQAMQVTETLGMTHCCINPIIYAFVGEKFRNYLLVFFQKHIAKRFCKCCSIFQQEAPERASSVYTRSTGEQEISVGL
Protocol: The ability of the compounds of the invention to inhibit the binding of MIP-1β was assessed by an in vitro radioligand binding assay. Membranes were prepared from Chinese hamster ovary recombinant cells which express the human CCR5 receptor. The membranes were incubated with 0.05 nM ^125I-MIP-1β in a HEPES 25 mM/CaCl2 5 mM/MgCl2 1 mM buffer and various concentrations of the compounds of the invention. The amount of iodinated MIP-1β bound to the receptor was determined after filtration by the quantification of membrane associated radioactivity using the TopCount-NXT reader (Packard). Competition curves were obtained for compounds of the invention and the concentration of compound which displaced 50% of bound radioligand (IC50) was calculated

[3] = target: T1, CCR5 receptor; assay: Aequorin-based calcium flux assay, agonist mode; format: cell-based; parameters: expressed in transfected cells; host or cells: Chinese hamster ovary (CHO) cells coexpressing apoaequorin and Gα16
Protocol: (§1) Briefly, Chinese hamster ovary cells expressing the CCR5 receptor are transfected to coexpress apoaequorin and Gα16. Cells are incubated with 5 μM Coelenterazine H (Promega) overnight at room temperature, and resuspended at a concentration of 0.1×10^6 cells/ml. Cells are then mixed with test agonist or antagonist compounds and light emission by the aequorin is recorded with a luminometer (FDSS 6000-Hamamatsu) for 30 sec. Results are expressed as Relative Light Units (RLU). Controls include cells not expressing CCR5 in order to exclude possible non-specific effects of the test compound.
An agonist response is defined as an increase of light emission by aequorin corresponding to 10% or more of the light emitted by a reference sample of cells expressing CCR5 and treated with a the reference agonist ligand MIP-1β.

[4] = target: T1, CCR5 receptor; assay: Aequorin-based calcium flux assay, antagonist mode (against reference agonist MIP-1β); format: cell-based; parameters: expressed in transfected cells; host or cells: Chinese hamster ovary (CHO) cells coexpressing apoaequorin and Gα16; conditions: CHO cells expressing CCR5, vs reference agonist MIP-1β; for IC50: read-out: Aequorin/Ca++ Antagonist assay IC50; on all read-outs here: key: Inactive means >30000 nm
Protocol: as §1
An antagonist response is defined as a decrease of light emission by aequorin of 10% or more in a sample of cells expressing CCR5 stimulated by a reference agonist ligand MIP-1β and treated with the compound of the invention, relative to a sample of cells expressing CCR5 but only treated with the reference agonist ligand MIP-1β.

[5] = Human immunodeficiency virus 1, MAGI-CCR5, 24 h, read-out: HIV-Infection assay IC50
[6] = CHO cells expressing CCR5, apoaequorin and Gα16, read-out: Aequorin/Ca++ assay EC50
[7] = Human immunodeficiency virus 1, MAGI, read-out: IC50 (HIV infection of MAGI R5 cells), range over the listed compounds
[8] = CHO cells expressing CCR5, agonistic mode of action
[9] = CHO cells expressing CCR5, agonistic mode of action, read-out: Aequorin/Ca++ Agonist assay EC50

Compound: C[C@H](CN(c1cccc(F)c1)S(=O)(=O)Cc1ccccc1)N1CCC(NC(=O)Cc2ccc(F)cc2F)CC1 [Compound 81]
IC50 [1, 5]: 0.0146 µM
IC50 [2]: 0.0002 µM
EC50 [3, 6]: 0.0381 µM

Compound: C[C@H](CN(c1cccc(F)c1)S(=O)(=O)Cc1ccccc1)N1CCC(NC(=O)Cc2ccc(C(F)(F)F)cc2)CC1 [Compound 90]
IC50 [1, 5]: 0.0053 µM
IC50 [2]: 0.0007 µM
EC50 [3, 6]: 0.18 µM

Compound: O=C(Cc1ccccc1)NC1CCN(CCC(c2ccccc2)c2ccccc2)CC1 [Compound 7]
IC50 [1, 7]: 0.0256 to 2.5 µM
IC50 [1, 5]: 1.42 µM
IC50 [2]: 0.0267 µM
EC50 [3, 6]: 0.0432 µM

Aequorin/Ca++ Agonist assay EC50 [3, 8]: Inactive
IC50 [4]: 1.43 µM
Compound: CN(C(=O)CN1Cc2ccccc2C1=O)C1CCN(CCC(c2ccccc2)c2ccccc2)CC1 [Compound 63]

Compound: N#Cc1ccc(CC(=O)NC2CCN(CCC(c3ccccc3)c3ccccc3)CC2)cc1 [Compound 24]
IC50 [1, 7]: 0.0256 to 2.5 µM
IC50 [1, 5]: 0.384 µM
IC50 [2]: 0.00325 µM
EC50 [3, 6]: 0.104 µM

Compound: CS(=O)(=O)c1ccc(CC(=O)NC2CCN(CCC(c3ccccc3)c3ccccc3)CC2)cc1 [Compound 2]
IC50 [1, 7]: 0.0256 to 2.5 µM
IC50 [1, 5]: 0.345 µM
IC50 [2]: 0.00661 µM
EC50 [3, 6]: 0.0332 µM

Compound: O=C(CC1CCCCC1)NC1CCN(CCC(c2ccccc2)c2ccccc2)CC1 [Compound 28]
IC50 [1, 5]: 2.54 µM
IC50 [2]: 0.158 µM
EC50 [3, 6]: 0.62 µM

EC50 [3, 9]: 0.47 µM
Aequorin/Ca++ Antagonist assay IC50 [4]: Inactive
Compound: O=C(CN1Cc2ccccc2C1=O)NC1CCN(CCC(c2ccccc2)c2ccccc2)CC1 [Compound 31]

Compound: COc1ccc(CC(=O)NC2CCN(CCC(c3ccccc3)c3ccccc3)CC2)cc1 [Compound 3]
IC50 [1, 7]: 0.0256 to 2.5 µM
IC50 [1, 5]: 0.871 µM
IC50 [2]: 0.0148 µM
EC50 [3, 6]: 0.0279 µM

Compound: CC(CC(c1ccccc1)c1ccccc1)N1CCC(NC(=O)Cc2ccc(S(C)(=O)=O)cc2)CC1 (centres unmarked) [Compound 64]
IC50 [1, 7]: 0.0256 to 2.5 µM
IC50 [1, 5]: 0.0256 µM
IC50 [2]: 0.00014 µM
EC50 [3, 6]: 0.0834 µM

Compound: O=C(Cc1ccc(OC(F)(F)F)cc1)NC1CCN(CCC(c2ccccc2)c2ccccc2)CC1 [Compound 5]
IC50 [1, 7]: 0.0256 to 2.5 µM
IC50 [1, 5]: 0.425 µM
IC50 [2]: 0.0234 µM
EC50 [3, 6]: 0.145 µM

Compound: C[C@H](CN(c1cccc(F)c1)S(=O)(=O)Cc1ccccc1)N1CCC(NC(=O)Cc2ccc(F)cc2)CC1 [Compound 97]
IC50 [1, 5]: 0.003 µM
IC50 [2]: 0.0002 µM
EC50 [3, 6]: 0.0944 µM

Compound: O=C(Cc1c[nH]c2ccccc12)NC1CCN(CCC(c2ccccc2)c2ccccc2)CC1 [Compound 25]
IC50 [1, 7]: 0.0256 to 2.5 µM
IC50 [1, 5]: 1.13 µM
IC50 [2]: 0.0675 µM
EC50 [3, 6]: 0.0908 µM

Compound: C[C@H](CN(c1cccc(F)c1)S(=O)(=O)Cc1ccccc1)N1CCC(NC(=O)Cc2ccccc2F)CC1 [Compound 80]
IC50 [1, 5]: 0.027 µM
IC50 [2]: 0.0008 µM
EC50 [3, 6]: 0.0313 µM

Compound: C[C@H](CN(c1ccccc1)S(=O)(=O)Cc1ccccc1)N1CCC(NC(=O)Cc2ccc(F)cc2F)CC1 [Compound 113]
IC50 [1, 5]: 0.0046 µM
EC50 [3, 6]: 0.0294 µM

Compound: O=C(Cc1ccc(Cl)cc1)NC1CCN(CCC(c2ccccc2)c2ccccc2)CC1 [Compound 1]
IC50 [1, 7]: 0.0256 to 2.5 µM
IC50 [1, 5]: 0.333 µM
IC50 [2]: 0.00932 µM
EC50 [3, 6]: 0.0588 µM
Aequorin/Ca++ Antagonist assay IC50 [4]: Inactive

Compound: C[C@H](CN(c1ccccc1)S(=O)(=O)Cc1ccccc1)N1CCC(NC(=O)Cc2ccc(C#N)cc2)CC1 [Compound 93]
IC50 [1, 5]: 0.0019 µM
IC50 [2]: 0.0005 µM
EC50 [3, 6]: 0.0508 µM

Compound: CC(CC(c1ccccc1)c1ccccc1)N1CCC(NC(=O)Cc2ccc(C#N)cc2)CC1 (centres unmarked) [Compound 65]
IC50 [1, 7]: 0.0256 to 2.5 µM
IC50 [1, 5]: 0.0717 µM
IC50 [2]: 0.00064 µM
EC50 [3, 6]: 0.117 µM

EC50 [3, 9]: 4.25 µM
Aequorin/Ca++ Antagonist assay IC50 [4]: Inactive
Compound: O=C(NC1CCN(CCC(c2ccccc2)c2ccccc2)CC1)C(c1ccccc1)N1Cc2ccccc2C1=O (centres unmarked) [Compound 37]

Aequorin/Ca++ Agonist assay EC50 [3, 8]: Inactive
IC50 [4]: 1.23 µM
Compound: CN(C(=O)C(c1ccccc1)N1Cc2ccccc2C1=O)C1CCN(CCC(c2ccccc2)c2ccccc2)CC1 (centres unmarked) [Compound 62]
